Source: patent EP4772498A1, “COMPOUND ACTING AS ANDROGEN RECEPTOR ANTAGONIST” (China Pharmaceutical University, priority 2023, dated 2025)
Marks after values point to notes of the source that are not given here.

Key:
[1] = Metabolic stability assay in liver microsomes; type: in vitro ADME; conditions: human liver microsomes, pH 7.4, human liver microsome 0.5 mg/mL, 1 mM NADPH, compound 1 µM, 37 °C; for microsomal CLint at 1 µM: read-out: In vitro Clint; for half-life at 1 µM: read-out: In vitro T1/2
Experimental: The metabolic stability of compounds disclosed herein in liver microsomes was determined using the following method.
• 1. Liver microsome source: Human liver microsome (Corning, 452117) • 2. Na2HPO4 (Tianjin Guangfu Fine Chemical Research Institute, 20180130) • 3. KH2PO4 (Tianjin Guangfu Fine Chemical Research Institute, 20180920) • 4. MgCl2 (Tianjin Guangfu Fine Chemical Research Institute, 20191216) • 5. NADPH (Solarbio, 1216C022) • 6. Positive control compound verapamil (Sigma, MKBV4993V) • 7. AB Sciex Triple Quad 4000 liquid chromatography-mass spectrometry system
1. Preparation of 100 mM phosphate-buffered saline (PBS): 7.098 g Na2HPO4 was dissolved in 500 mL of purified water by sonication to give solution A. 3.400 g of KH2PO4 was dissolved in 250 mL of purified water by sonication to give solution B. Solution A was placed on a stirrer, and solution B was added slowly until the pH reached 7.4, so as to give a 100 mM PBS buffer. 2. Preparation of reaction system The reaction system was prepared according to the table below.
3. The reaction system was pre-incubated in a 37 °C water bath for 10 min. 40 µL of 10 mM NADPH solution (NADPH was dissolved in 100 mM phosphate-buffered saline) was added to the reaction system, with the final concentration of NADPH being 1 mM. A negative control was prepared by replacing the NADPH solution with 40 µL of phosphate-buffered saline. The negative control was used to exclude the effect of the chemical stability of the compound itself. 4. The reaction was initiated by adding 4 µL of 100 µM compound disclosed herein or positive control compound verapamil to the reaction system at a final concentration of 1 µM. 5. After 0.5 min, 15 min, 30 min, 45 min, and 60 min of mixing well by using a vortex oscillator, 50 µ L of the incubated sample was taken out, and glacial acetonitrile containing an internal standard of 4 folds was added to terminate the reaction. The sample was centrifuged at 3,220 g for 45 min. 90 µL of the supernatant was transferred to a feeding plate after the centrifugation was completed, and 90 µL ultrapure water was added. The mixture was well mixed for LC-MS/MS analysis.
All data were calculated by using Microsoft Excel software. The peak areas were determined by using an extracted ion chromatogram. The in vitro half-life (T1/2) of the test compound was determined by linear fitting of the natural logarithm of the elimination proportion of the test compound over time. In vitro half-life (T1/2) was calculated by the slope k: in vitro T1/2 = 0.693/k [formula]
The in vitro intrinsic clearance (in vitro CLint, unit: µL/min/mg protein) was calculated using the following formula: in vitro CLint = k × volume of incubation solution/enzyme protein content; [formula]

[2] = test system: AR; assay: AR antagonistic activity: AR / PSA ARE1 luciferase reporter gene assay in transfected LNCaP cells stimulated with 1 nM DHT; type: cell-based; conditions: 24 h, normalised to 0.1% DMSO and 30 µM enzalutamide
Experimental: LNCaP cells were plated in a 6-well plate (Corning, 3516) at 8 × 10^5 cells/well.
AR and PSA ARE1 reporter gene plasmids (Bio (Anhui) Co., Ltd.) and transfection reagents Lipo3000 and P3000 (Lipofectamine™ 3000) (a total of 2.5 µg of plasmids, i.e., 1.25 µg of each plasmid, were added to each well) were left to stand and incubated for 10 min, and then 250 µL of the above transfection reagents were added dropwise to each well containing cells and co-incubated with the cells for 24 h.
The cells were washed with PBS, and the medium was replaced with a phenol red-free RPMI-1640 medium containing 5% carbon adsorption serum (or 10% fetal bovine serum and 1% penicillin and streptomycin). The cells were re-plated onto a 96-well plate (Corning, 3603) according to the number of cells plated (2 × 10^4 cells/well).
After cell plating, the test compound (or DMSO or positive control) was added. After at least 30 min of incubation, DHT (dihydrotestosterone) was added to the culture system at a final concentration of 1 nM. The culture system was then incubated in a carbon dioxide incubator.
Test compound: 10 mM stock solution, with a final concentration of 3.3 µM or 6.7 µM. Negative control: 0.1% DMSO. Positive control: 30 µM enzalutamide.
After the test compound (or DMSO or positive control) and DHT were co-incubated for 24 h, the luciferase signal was detected using the Vazyme Bright-Lite substrate. The medium was added at 70 µL/well, and the plate was shaken for 2 min, followed by reading of the luciferase signal.
Assay robustness was confirmed using the DMSO and low concentration control data: Ave_H = Ave(DMSO) [formula] Ave_L = Ave (30μMenzalutamide) [formula] Inhibition rate (%) = (Ave_H−Sample)/(Ave_H−Ave_L) × 100% [formula] Ave_H: the measurement of the negative control (0.1% DMSO); Ave_L: the measurement of the positive control (30 µM enzalutamide); Sample: the measurement of the test compound; The corresponding activity test results for the test compounds were specified in Table 1. Table 1. Corresponding activity test results for compounds disclosed herein

[3] = test system: C57BL/6 mice; assay: In vivo pharmacodynamic study 1: hair growth scoring in shaved telogen-phase mice, topical treatment; conditions: for Score (mean±SD): hair growth score 0-5, topical twice daily, compound 001 2 wt%, compound 008 0.5 wt%
Description: Vehicle: propylene glycol/ethanol (30:70, v/v)
Animal information: C57BL/6 mice (male, aged 4-6 weeks, about 18-20 g), purchased from Shanghai Lingchang Biotechnology Co., Ltd. The mice were bred in an SPF-level environment within independently ventilated cages.
Skin preparation: After 1-2 weeks of acclimation, the hairs in a 2 cm × 3 cm area of the back of the mice were shaved to confirm that the hairs of the mice were in the telogen phase (the skin was pink) and the skin was not damaged.
Treatment: On day 3 after shaving, the mice were grouped for treatment. […] The control group received the control solvent. 12 mice were in each group.
The mice were weighed on days 10, 13, 18, 21, 25, and 30, and the hair growth state was scored and photographed.
The scoring criteria are as follows: • 0: no growth, with pink skin in the shaved area; • 1: the skin in the shaved area was gray (an increase of less than 20%); • 2: the skin in the shaved area was black (more than 20% but less than 40%); • 3: the skin in the shaved area was black with a little hair growth (more than 40% but less than 60%); • 4: the skin in the shaved area was black with partial hair growth (more than 60% but less than 80%); • 5: basically complete hair growth (80%-100% growth) in the shaved area.

[4] = Whole blood stability; conditions: human
Experimental: 1 mM stock solutions of the test compounds were prepared in DMSO, and a 1 mM stock solution of the reference compound propantheline was prepared in acetonitrile.
4 µL of test compound (or reference compound) stock solution was added to 796 µL of pre-incubated human blood (whole blood) at a final concentration of 5 µM. The final concentration of the solvent was 0.5%. At different time points (including 5 min, 15 min, 30 min, 60 min, and 120 min), a 50 µL aliquot of the whole blood containing the sample was added to a new tube and incubated in a 37 °C water bath with shaking at 60 rpm. The treatment was performed in duplicate. At designated time points, 300 µL of room-temperature quenching solution (a solution of acetonitrile containing internal standards (100 nM alprazolam, 500 nM labetalol, and 2 µM ketoprofen)) was added to the whole blood sample containing the sample to terminate the reaction. 50 µL of whole blood containing the sample was added to a new tube containing 300 µL of room-temperature quenching solution to prepare a sample at 0 min. All samples were vortexed for 5 min. The samples in the plate were centrifuged at 3220 g for 30 min at 4 °C to precipitate the proteins. 100 µL of the supernatant was transferred to a new 96-well plate containing 100 µL of water for LC-MS/MS analysis.
The peak area ratio was determined by using an extracted ion chromatogram. The proportion of remaining compound at each time point was calculated according to the following formula: Remaning proporion t min (%) = peak area ratio t min / peak area ratio 0 min × 100% [formula] • Peak area ratio t min: peak area ratio of reference compound to test compound at t min; • Peak area ratio 0 min: peak area ratio of reference compound to test compound at time zero.
The slope value was determined by linear regression on the curve of the natural logarithm of the remaining proportion of the test compound versus the incubation time.
Determination of in vitro half-life (in vitro t1/2) from the slope value: in vitro t1/2 = 0.693/k [formula] in the formula, k is the rate constant (k = -slope value)

[5] = treatment concentration: 3.3 µM
[6] = at the investigated doses (001 2%, 008 0.5%, BID topical)
[7] = treatment concentration: 6.7 µM

CCOC(=O)[C@@](C)(O)C(=O)Nc1cnc(C#N)c(C(F)(F)F)c1 [Compound 002, Ethyl (2S)-3-[[6-cyano-5-(trifluoromethyl)pyridin-3-yl]amino]-2-hydroxy-2-methyl-3-oxopropanoate]
microsomal CLint at 1 µM [1]: 32.5 µL/min/mg | half-life at 1 µM [1]: 42.6 min | AR antagonism (inhibition rate, %) [2, 5]: 89.16^a %

CCOC(=O)[C@](C)(O)C(=O)Nc1cnc(C#N)c(C(F)(F)F)c1 [Compound 003, ethyl (2R)-3-[[6-cyano-5-(trifluoromethyl)pyridin-3-yl]amino]-2-hydroxy-2-methyl-3-oxopropanoate]
microsomal CLint at 1 µM [1]: 60.4 µL/min/mg | half-life at 1 µM [1]: 22.9 min | AR antagonism (inhibition rate, %) [2, 5]: 75.26^a %

CCCOC(=O)[C@@](C)(O)C(=O)Nc1cnc(C#N)c(C(F)(F)F)c1 [Compound 004, Propyl (2S)-3-[[6-cyano-5-(trifluoromethyl)-pyridin-3-yl]amino]-2-hydroxy-2-methyl-3-oxopropanoate]
AR antagonism (inhibition rate, %) [2, 5]: 87.30^a %

CCCOC(=O)[C@](C)(O)C(=O)Nc1cnc(C#N)c(C(F)(F)F)c1 [Compound 005, propyl (2R)-3-[[6-cyano-5-(trifluoromethyl)-pyridin-3-yl]amino]-2-hydroxy-2-methyl-3-oxopropanoate]
AR antagonism (inhibition rate, %) [2, 5]: 58.52^a %

CCCCOC(=O)[C@@](C)(O)C(=O)Nc1cnc(C#N)c(C(F)(F)F)c1 [Compound 006, butyl (2S)-3-[[6-cyano-5-(trifluoromethyl)pyridin-3-yl]amino]-2-hydroxy-2-methyl-3-oxopropanoate]
AR antagonism (inhibition rate, %) [2, 5]: 93.92^a %

CCOC(=O)C(O)(C(=O)Nc1cnc(C#N)c(C(F)(F)F)c1)C(F)(F)F (stereo not drawn) [Compound 008, Ethyl 2-[[6-cyano-5-(trifluoromethyl)-pyridin-3-yl]carbamoyl]-3,3,3-trifluoro-2-hydroxypropanoate]
Score (mean±SD) ([3]; Day 0): 0 | Score (mean±SD) ([3]; Day 10): 0.4±0.5 | Score (mean±SD) ([3]; Day 13): 0.6±0.5 | Score (mean±SD) ([3]; Day 18): 1.0±0.6 | Score (mean±SD) ([3]; Day 21): 1.1±0.7 | Score (mean±SD) ([3]; Day 25): 1.9±1.5 | Score (mean±SD) ([3]; Day 30): 2.8±2.1 | impact on the body weight of the mice [3, 6]: no significant impact | signs of erythema, dehiscence, desquamation, and the like on the skin [3, 6]: no signs | effect on mouse hair growth ([3]; compound 001 at 2%, compound 008 at 0.5%, BID topically at 20 µL/cm^2): significant promoting effect | day of the treatment from which hair growth was significantly promoted ([3]; vs. vehicle control, 001 P < 0.01, 008 P < 0.05): ≥ 13 days | microsomal CLint at 1 µM [1]: 35.5 µL/min/mg | half-life at 1 µM [1]: 39.1 min | AR antagonism (inhibition rate, %) [2, 5]: 86.95^a %

CCCOC(=O)C(O)(C(=O)Nc1cnc(C#N)c(C(F)(F)F)c1)C(F)(F)F (stereo not drawn) [Compound 010, Propyl 2-[[6-cyano-5-(trifluoromethyl)-pyridin-3-yl]carbamoyl]-3,3,3-trifluoro-2-hydroxypropanoate]
AR antagonism (inhibition rate, %) [2, 5]: 82.14^a %

CCCCOC(=O)C(O)(C(=O)Nc1cnc(C#N)c(C(F)(F)F)c1)C(F)(F)F (stereo not drawn) [Compound 011, Butyl 2-[[6-cyano-5-(trifluoromethyl)-pyridin-3-yl]carbamoyl]-3,3,3-trifluoro-2-hydroxypropanoate]
AR antagonism (inhibition rate, %) [2, 5]: 88.48^a %

CC(C)OC(=O)C(C)(O)C(=O)Nc1cnc(C#N)c(C(F)(F)F)c1 (stereo not drawn) [Compound 013, Isopropyl 3-[[6-cyano-5-(trifluoromethyl)-pyridin-3-yl]amino]-2-hydroxy-2-methyl-3-oxopropanoate]
half-life at 5 µM [4]: 349 min | AR antagonism (inhibition rate, %) [2, 5]: 90.0^a %

CC(C)(C)OC(=O)C(C)(O)C(=O)Nc1cnc(C#N)c(C(F)(F)F)c1 (stereo not drawn) [Compound 014, tert-Butyl 3-[[6-cyano-5-(trifluoromethyl)-pyridin-3-yl]amino]-2-hydroxy-2-methyl-3-oxopropanoate]
AR antagonism (inhibition rate, %) [2, 5]: 90.3^a %

CCOC(=O)C(O)(C(=O)Nc1ccc(C#N)c(SC)c1F)C(F)(F)F (stereo not drawn) [Compound 015, Ethyl 2-[(4-cyano-2-fluoro-3-methylsulfanyl-phenyl)carbamoyl]-3,3,3-trifluoro-2-hydroxy-propanoate]
AR antagonism (inhibition rate, %) [2, 5]: 65.06^a %

CCOC(=O)C(C)(O)C(=O)Nc1cnc(C#N)c(SC)c1 (stereo not drawn) [Compound 016, Ethyl 3-[(6-cyano-5-methylthio-pyridin-3-yl)amino]-2-hydroxy-2-methyl-3-oxopropanoate]
microsomal CLint at 1 µM [1]: 102 µL/min/mg | half-life at 1 µM [1]: 13.6 min

CCCCOC(=O)C(C)(O)C(=O)Nc1ccc(C#N)c(C(F)(F)F)c1 (stereo not drawn) [Compound 022, Butyl 3-[4-cyano-3-(trifluoromethyl)anilino]-2-hydroxy-2-methyl-3-oxo-propanoate]
AR antagonism (inhibition rate, %) [2, 5]: 81.05^a %

CCCCOC(=O)C(C)(O)C(=O)Nc1ccc(Cl)c(C(F)(F)F)c1 (stereo not drawn) [Compound 023, Butyl 3-[4-chloro-3-(trifluoromethyl)anilino]-2-hydroxy-2-methyl-3-oxo-propanoate]
AR antagonism (inhibition rate, %) [2, 5]: 52.26^a %

CCOC(=O)c1cccc(NC(=O)C(C)(O)C(=O)Nc2cnc(C#N)c(C(F)(F)F)c2)n1 (stereo not drawn) [Compound 032, Ethyl 6-(3-((6-cyano-5-(trifluoromethyl)pyridin-3-yl)amino)-2-hydroxy-2-methyl-3-oxopropanamido)picolinate]
AR antagonism (inhibition rate, %) [2, 5]: 47.7^a %

COc1cc(NC(=O)C(C)(O)C(=O)OC(C)(C)C)cnc1C#N (stereo not drawn) [Compound 048, tert-Butyl 3-[(6-cyano-5-methoxypyridin-3-yl)amino]-2-hydroxy-2-methyl-3-oxo-propanoate]
AR antagonism (inhibition rate, %) [2, 7]: 62.18^b %

CSc1cc(NC(=O)C(C)(O)C(=O)OC(C)(C)C)cnc1C#N (stereo not drawn) [Compound 049, tert-Butyl 3-[(6-cyano-5-methylthiopyridin-3-yl)amino]-2-hydroxy-2-methyl-3-oxo-propanoate]
AR antagonism (inhibition rate, %) [2, 7]: 90.02^b %
